Results: patent US20230081426A1, “COMPOUNDS AND METHODS FOR KRAS MODULATION AND INDICATIONS THEREFOR” (Plexxikon Inc., priority 2020, published 2023)

Tests used:
[1] = target: T1, G12D-mutant human KRAS (amino acid residues 1-188) (Homo sapiens, UniProt P01116, G12D); assay: KRAS Binding Disruption Assay (AlphaScreen; biotinylated KRpep-2d analogue or RAF1-RBD), G12D; settings: KRAS G12D; geometric mean; read-out: KRAS GMean IC50 (uM) MUTATION: G12D
T1 construct: G12D or G12C-mutant human KRAS (amino acid residues 1-188) with FLAG tag; made in house; host or cells: E. coli
Method in brief: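 Mutant KRAS (5-20 nM) incubated 1 h at 25° C with test compound and 5-20 nM biotinylated KRpep-2d analogue or RAF1-RBD in 20 mM HEPES pH 7.5, 100 mM NaCl, 5 mM MgCl2, 0.01% Tween-20, 0.01% BSA.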

[2] = target: T2, G12V-mutant human KRAS (amino acid residues 1-188) (Homo sapiens, UniProt P01116, G12V); assay: KRAS Binding Competition Assay (AlphaScreen; biotinylated KRpep-2d analogue), G12V; settings: geometric mean, read-out: KRAS GMean IC50 (uM) MUTATION: G12V
T2 construct: G12V-mutant human KRAS (amino acid residues 1-188) with FLAG tag was purified from E. coli; made in house; host or cells: E. coli

IC50 [1]	IC50 [2]	SMILES
10 to 100 µM	10 to 100 µM	CN1CCC[C@H]1COc1nc(N2[C@@H]3CC[C@H]2CNC3)c2ccc(-c3cc(CO)cc4ccccc34)cc2n1 [P-0304, (4-(4-((1R,5S)-3,8-diazabicyclo[3.2.1]octan-8-yl)-2-(((S)-1-methylpyrrolidin-2-yl)methoxy)quinazolin-7-yl)naphthalen-2-yl)methanol]
10 to 100 µM	0.0001 to 10 µM	CN1CCC[C@H]1COc1nc(N2[C@@H]3CC[C@H]2CN(C(=O)c2ncc[nH]2)C3)c2ccc(-c3cc(O)cc4ccccc34)cc2n1 [P-0224, ((1R,5S)-8-(7-(3-hydroxynaphthalen-1-yl)-2-(((S)-1-methylpyrrolidin-2-yl)methoxy)quinazolin-4-yl)-3,8-diazabicyclo[3.2.1]octan-3-yl)(1H-imidazol-2-yl)methanone]
0.0001 to 10 µM	10 to 100 µM	OCCc1nc(N2C[C@H]3CC[C@@H](C2)N3)c2ccc(-c3cc(O)cc4ccccc34)c(F)c2n1 [P-0431, 4-(4-((1R,5S)-3,8-diazabicyclo[3.2.1]octan-3-yl)-8-fluoro-2-(2-hydroxyethyl)quinazolin-7-yl)naphthalen-2-ol]
0.0001 to 10 µM	0.0001 to 10 µM	CN1CCN(CCCC(=O)N2[C@@H]3CC[C@H]2CN(c2nc(OCC45CCCN4CCC5)nc4c(F)c(-c5cc(O)cc6ccccc56)ccc24)C3)CC1 [P-0187, 1-((1R,5S)-3-(8-fluoro-7-(3-hydroxynaphthalen-1-yl)-2-((tetrahydro-1H-pyrrolizin-7a(5H)-yl)methoxy)quinazolin-4-yl)-3,8-diazabicyclo[3.2.1]octan-8-yl)-4-(4-methylpiperazin-1-yl)butan-1-one]
10 to 100 µM	10 to 100 µM	CN1CCC[C@H]1COc1nc(N2[C@@H]3CC[C@H]2CN(CC(=O)N2CCOCC2)C3)c2ccc(-c3cc(O)cc4ccccc34)cc2n1 [P-0276, 2-((1R,5S)-8-(7-(3-hydroxynaphthalen-1-yl)-2-(((S)-1-methylpyrrolidin-2-yl)methoxy)quinazolin-4-yl)-3,8-diazabicyclo[3.2.1]octan-3-yl)-1-morpholinoethan-1-one]
0.0001 to 10 µM	10 to 100 µM	CN1CCCC1COc1nc(N2C[C@H]3CC[C@@H](C2)N3C(=O)NC2CCN(C3CCCCC3)C2)c2ccc(-c3cc(O)cc4ccccc34)c(F)c2n1 (stereo partly drawn) [P-0419, (1R,5S)-N-(1-cyclohexylpyrrolidin-3-yl)-3-(8-fluoro-7-(3-hydroxynaphthalen-1-yl)-2-((1-methylpyrrolidin-2-yl)methoxy)quinazolin-4-yl)-3,8-diazabicyclo[3.2.1]octane-8-carboxamide]
10 to 100 µM	10 to 100 µM	OCc1nc(N2C[C@H]3CC[C@@H](C2)N3)c2cc(Cl)c(-c3c(O)cccc3F)c(F)c2n1 [P-0456, 2-(4-((1R,5S)-3,8-diazabicyclo[3.2.1]octan-3-yl)-6-chloro-8-fluoro-2-(hydroxymethyl)quinazolin-7-yl)-3-fluorophenol]
0.0001 to 10 µM	0.0001 to 10 µM	CN(C)c1ccc(CCc2nc(N3C[C@H]4CC[C@@H](C3)N4)c3ccc(-c4cc(O)cc5ccccc45)cc3n2)cc1 [P-0242, 4-(4-((1R,5S)-3,8-diazabicyclo[3.2.1]octan-3-yl)-2-(4-(dimethylamino)phenethyl)quinazo-lin-7-yl)naphthalen-2-ol]
10 to 100 µM	10 to 100 µM	Oc1cc(-c2ccc3c(N4[C@@H]5CC[C@H]4CNC5)nc(Oc4cccnc4)nc3c2)c2ccccc2c1 [P-0321, 4-(4-((1R,5S)-3,8-diazabicyclo[3.2.1]octan-8-yl)-2-(pyridin-3-yloxy)quinazolin-7-yl)naphthalen-2-ol]
100 to 1000 µM	100 to 1000 µM	COc1ccc2c(-c3c(F)cc4c(N5C[C@H]6CC[C@@H](C5)N6)nc(OC[C@@H]5CCCN5C)nc4c3F)c[nH]c2c1 [P-0473, 4-((1R,5S)-3,8-diazabicyclo[3.2.1]octan-3-yl)-6,8-difluoro-7-(6-methoxy-1H-indol-3-yl)-2-(((S)-1-methylpyrrolidin-2-yl)methoxy)quinazoline]
10 to 100 µM	10 to 100 µM	CN1CCC[C@H]1COc1nc(N2[C@@H]3CC[C@H]2CN(C(=O)[C@@H]2C[C@@H](O)CN2)C3)c2ccc(-c3cc(O)cc4ccccc34)cc2n1 [P-0204, ((1R,5S)-8-(7-(3-hydroxynaphthalen-1-yl)-2-(((S)-1-methylpyrrolidin-2-yl)methoxy)quinazolin-4-yl)-3,8-diazabicyclo[3.2.1]octan-3-yl)((2S,4R)-4-hydroxypyrrolidin-2-yl)methanone]
0.0001 to 10 µM	10 to 100 µM	Oc1cc(-c2ccc3c(N4C[C@H]5CC[C@@H](C4)N5)nc(CCN4CCCC4)nc3c2F)c2ccccc2c1 [P-0439, 4-(4-((1R,5S)-3,8-diazabicyclo[3.2.1]octan-3-yl)-8-fluoro-2-(2-(pyrrolidin-1-yl)ethyl)quinazolin-7-yl)naphthalen-2-ol]
0.0001 to 10 µM	10 to 100 µM	N#CCc1cccc2[nH]cc(-c3ccc4c(N5C[C@H]6CC[C@@H](C5)N6)nc(OCC56CCCN5CCC6)nc4c3F)c12 [P-0615, 2-(3-(4-((1R,5S)-3,8-diazabicyclo[3.2.1]octan-3-yl)-8-fluoro-2-((tetrahydro-1H-pyrrolizin-7a(5H)-yl)methoxy)quinazolin-7-yl)-1H-indol-4-yl)acetonitrile]
0.0001 to 10 µM	100 to 1000 µM	CN1CCC[C@H]1COc1nc(N2C[C@H]3CC[C@@H](C2)N3CC(=O)N2CCNCC2)c2ccc(-c3cc(O)cc4ccccc34)c(F)c2n1 [P-0471, 2-((1R,5S)-3-(8-fluoro-7-(3-hydroxynaphthalen-1-yl)-2-(((S)-1-methylpyrrolidin-2-yl)methoxy)quinazolin-4-yl)-3,8-diazabicyclo[3.2.1]octan-8-yl)-1-(piperazin-1-yl)ethan-1-one]
0.0001 to 10 µM	10 to 100 µM	C[C@H]1CCCN1CCc1nc(N2C[C@H]3CC[C@@H](C2)N3)c2ccc(-c3cc(O)cc4ccccc34)c(F)c2n1 [P-0440, 4-(4-((1R,5S)-3,8-diazabicyclo[3.2.1]octan-3-yl)-8-fluoro-2-(2-((S)-2-methylpyrrolidin-1-yl)ethyl)quinazolin-7-yl)naphthalen-2-ol]
0.0001 to 10 µM	0.0001 to 10 µM	CN(C)c1ccc(CCc2nc(N3C[C@H]4CC[C@@H](C3)N4)c3cc(Cl)c(-c4c(O)cccc4F)c(F)c3n2)cc1 [P-0326, 2-(4-((1R,5S)-3,8-diazabicyclo[3.2.1]octan-3-yl)-6-chloro-2-(4-(dimethylamino)phenethyl)-8-fluoroquinazolin-7-yl)-3-fluorophenol]
0.0001 to 10 µM	10 to 100 µM	Fc1c(-c2c[nH]c3ccc(Cl)c(F)c23)c(Cl)cc2c(N3C[C@H]4CC[C@@H](C3)N4)nc(OCC34CCCN3CCC4)nc12 [P-0466, 4-((1R,5S)-3,8-diazabicyclo[3.2.1]octan-3-yl)-6-chloro-7-(5-chloro-4-fluoro-1H-indol-3-yl)-8-fluoro-2-((tetrahydro-1H-pyrrolizin-7a(5H)-yl)methoxy)quinazoline]
0.0001 to 10 µM	0.0001 to 10 µM	CN(C)c1cccc(COc2nc(N3C[C@H]4CC[C@@H](C3)N4)c3cc(Cl)c(-c4c(O)cccc4F)c(F)c3n2)c1 [P-0364, 2-(4-((1R,5S)-3,8-diazabicyclo[3.2.1]octan-3-yl)-6-chloro-2-((3-(dimethylamino)benzyl)oxy)-8-fluoroquinazolin-7-yl)-3-fluorophenol]
10 to 100 µM	10 to 100 µM	CN1CCC[C@H]1COc1nc(N2[C@@H]3CC[C@H]2CN(C(=O)[C@@H](N)CO)C3)c2ccc(-c3cc(O)cc4ccccc34)cc2n1 [P-0223, (S)-2-amino-3-hydroxy-1-((1R,5S)-8-(7-(3-hydroxynaphthalen-1-yl)-2-(((S)-1-methylpyrrolidin-2-yl)methoxy)quinazolin-4-yl)-3,8-diazabicyclo[3.2.1]octan-3-yl)propan-1-one]
10 to 100 µM	10 to 100 µM	CN1CCC[C@H]1COc1nc(N2C[C@H]3CC[C@@H](C2)N3)c2ccc(-c3ccc4oc(N)nc4c3)cc2n1 [P-0181, 5-(4-((1R,5S)-3,8-diazabicyclo[3.2.1]octan-3-yl)-2-(((S)-1-methylpyrrolidin-2-yl)methoxy)quinazolin-7-yl)benzo[d]oxazol-2-amine]
10 to 100 µM	10 to 100 µM	CN1CCC[C@H]1COc1nc(N2[C@@H]3CC[C@H]2CN(C(=O)CC2CCNCC2)C3)c2ccc(-c3cc(O)cc4ccccc34)cc2n1 [P-0189, 1-((1R,5S)-8-(7-(3-hydroxynaphthalen-1-yl)-2-(((S)-1-methylpyrrolidin-2-yl)methoxy)quinazolin-4-yl)-3,8-diazabicyclo[3.2.1]octan-3-yl)-2-(piperidin-4-yl)ethan-1-one]
100 to 1000 µM	10 to 100 µM	CN1CCC[C@H]1COc1nc(N2C[C@H]3CC[C@@H](C2)N3)c2ccc(-c3c[nH]c4ncccc34)cc2n1 [P-0175, 4-((1R,5S)-3,8-diazabicyclo[3.2.1]octan-3-yl)-2-(((S)-1-methylpyrrolidin-2-yl)methoxy)-7-(1H-pyrrolo[2,3-b]pyridin-3-yl)quinazoline]
0.0001 to 10 µM	0.0001 to 10 µM	CC(=O)NCC(=O)N1[C@@H]2CC[C@H]1CN(c1nc(OCC34CCCN3CCC4)nc3cc(-c4cc(O)cc5ccccc45)ccc13)C2 [P-0091, N-(2-((1R,5S)-3-(7-(3-hydroxynaphthalen-1-yl)-2-((tetrahydro-1H-pyrrolizin-7a(5H)-yl)methoxy)quinazolin-4-yl)-3,8-diazabicyclo[3.2.1]octan-8-yl)-2-oxoethyl)acetamide]
